According to publication PMC6089189, “Targeting inhibitors of apoptosis proteins suppresses medulloblastoma cell proliferation via G2/M phase arrest and attenuated neddylation of p21” (Cancer Medicine, 2018):
Residues, ends and D or L forms follow the SMILES beside them. *: point of attachment. Cbz = O=C(OCc1ccccc1)*

Tests used:
Format in all cases: cell-based
D283MED cells [1] = assay: MTT cell viability assay, D283MED
Procedure: (§1) This assay was carried out using thiazolyl blue tetrazolium bromide (MTT; Sigma), as described in previous studies.12 Cell viability was calculated using the formula: (OD of experimental well/OD of control well) × 100%.
(§2) Figure 1 High Levels of IAPs in MB Cells Correspond to Sensitivity to IAP Inhibitors LBW242 or LCL161. A, The levels of IAPs and p21 in MB cell lines DAOY, D283MED and normal controls HA‐h and BJ were determined by immunoblotting. Their levels in MB cells were quantitated, normalized by GAPDH, presented in a bar graph, and compared to those in HA‐h cells. B, DAOY, D283MED, HA‐h, and BJ cell lines were treated with LBW242 or LCL161 at different concentrations (0, 5, 10, 20, and 40 μmol/L) and DMSO (control) for 72 h. Cell viability was determined by MTT assay. Data are represented as mean ± SEM of three independent experiments (*P < 0.05, **P < 0.01, and ***P < 0.005)

D283MED cells [2] = assay: Apoptosis by Annexin V/PI and FACS, D283MED; details: Annexin V‐positive population by FACS
D283MED cells [3] = assay: Cell cycle analysis (PI, FACS), D283MED; details: siRNA with DMSO control, vincristine or cisplatin, Fig. S2
Procedure: (§3) MB cells were harvested following treatment with reagents. Cells were fixed with 70% ethanol, and then stored at −20°C overnight. Subsequent to equilibrating to room temperature, the cells were permeabilized with PBS containing 0.5% Triton X‐100 and 0.05% RNAse followed by staining with 50 μg/mL propidium iodide (PI; Sigma) at 4°C for 30 minutes. Finally, DNA content was detected by fluorescence‐activated cell sorting (FACS; Beckman Coulter Epics XL, Brea, CA, USA), and data were analyzed by EXPO32 ADC software (Beckman‐Coulter, USA).
(§4) A, MB cells were treated with DMSO (control), vincristine (1.25 nmol/L for DAOY and 2.5 nmol/L for D283MED), or cisplatin (0.31 μmol/L for DAOY and 0.625 μmol/L for D283MED), or in combination with LCL161 (10 μmol/L) or LBW242 (10 μmol/L) for 72 h. Thereafter, cells were harvested and their DNA contents were analyzed by FACS. B, The proportion of each cell cycle compartment was shown in bar graphs.

[4] = tested on: HA‐h cells (human astrocyte‐hippocampal); assay: MTT cell viability assay, HA‐h; details: for IC50: HA‐h, MTT; for effect on HA‐h cell proliferation: 30 μmol/L, 72 h
Procedure: as §1, §2

DAOY cells [5] = assay: Cell cycle analysis (PI, FACS), DAOY; details: siRNA with DMSO control, vincristine or cisplatin, Fig. S2
Procedure: as §3, §4

[6] = tested on: BJ cells (normal fibroblast cell line); assay: MTT cell viability assay, BJ; details: for IC50: BJ, MTT; for effect on BJ cell proliferation: 30 μmol/L, 72 h
Procedure: as §1, §2

DAOY cells [7] = assay: Apoptosis by Annexin V/PI and FACS, DAOY; details: Annexin V‐positive population by FACS
DAOY cells [8] = assay: MTT cell viability assay, DAOY
Procedure: as §1, §2

p21 RNA = assay: RT‐PCR analysis of p21 RNA in MB cells; details: DAOY and D283MED
Excerpt: Total RNA was extracted using trizole reagent (Easypure Total RNA Reagent) and converted into cDNA product using iScript cDNA Synthesis Kit (BIO‐RAD, Hercules, CA, USA). The cDNA product was mixed with PCR Master Mix reagent (Promega, Madison, WI, USA) and PCR primers, and then subjected to 1% agarose gel electrophoresis. The target gene expression was normalized by GAPDH. Primer sequences for p21 are 5′‐[…]‐3′ (forward) and 5′‐GGGCTTCCTCTTGGA‐GAAGAT‐3′ (reverse); primer sequences for cIAP1 are 5′‐[…]‐3′ (forward) and 5′‐[…]‐3′ (reverse); primer sequences for cIAP2 are 5′‐[…]‐3′ (forward) and 5′‐CAAGTAGATGAGGGTAA‐CTGGC‐3′ (reverse); primer sequences for GAPDH are 5′‐TGAAGGTCGGAGTCA‐ACGGATTTGGT‐3′ (forward) and 5′‐[…]‐3′ (reverse).

ubiquitination of p21 = assay: Immunoprecipitation of p21, ubiquitination (Ub‐HA); details: MB cells, in the presence of MG‐132 for 6 hours
Procedure: (§5) To observe ubiquitination or neddylation of p21, anti‐p21 antibody (Cell Signaling Technology) and Meg‐Beads‐Protein G (TOOLs) were added into total cell lysates collected from MB cells after transfected with plasmid overexpressing ubiquitin‐hemagglutinin (HA; Addgene, Cambridge, MA, USA) or NEDD8‐HA (Addgene) and treated with MG‐132 for 6 hours. Thereafter, immunoprecipitates were analyzed by immunoblotting with anti‐HA antibody (Sigma).
(§6) Figure 6 IAP Antagonist LBW242 Attenuates p21‐Interacted cIAP1 Expression and Neddylation of p21. A, To examine the ubiquitination of p21, MB cells were transfected with the plasmid carrying ubiquitin (Ub)‐HA and then treated with LBW242 combined with MG‐132 for 6 h. Total cell lysates were used for immunoprecipitation of p21, and subsequently applied to immunoblotting for detection of Ub‐HA, cIAP1, and cIAP2. B, To detect the neddylation of p21, MB cells were transfected with the plasmid overexpressing NEDD8‐HA, treated with MG‐132 and LBW242, and then subjected to immunoprecipitation. C, To examine whether cIAP1 dominates neddylation of p21, MB cells were co‐transfected with cIAP1 siRNA and NEDD8‐HA overexpressed plasmid, treated with MG‐132 for 6 h, and then applied to immunoprecipitation. D, DAOY cells were treated with MG‐132 for 6 h, and stained by immunofluorescence with anti‐cIAP1, anti‐cIAP2, and anti‐p21 antibodies. […]

cIAP1 = assay: Immunoblotting of IAPs in MB cells, time course; details: 10 μmol/L, in 60 minutes, DAOY and D283MED
Excerpt: (§7) Antibody against XIAP, cIAP2, p21, or p53 was purchased from Cell Signaling Technology (Danvers, MA, USA); antibody for detection of cIAP1, cIAP1/2, p27, p16, GAPDH, cyclin A, or cyclin B1 was purchased from Santa Cruz Biotechnology (Dallas, TX, USA); antibodies against CDK1 and CDK2 were bought from Millipore (Burlington, MA, USA) and Upstate Biotechnology, respectively. The blotting membrane was developed using enhanced chemiluminescence (ECL) substrate (Millipore), and analyzed by densitometry and Image J (National Institutes of Health, USA).
(§8) Figure 4 IAPs Inhibition Increases the Protein Levels of p21, which are Governed by Proteasomal Degradation. A, DAOY and D283MED cells were incubated with LBW242 (10 μmol/L) for 0‐360 min. Total cell lysates were collected at different time points and then subjected to immunoblotting. B, The protein levels of cIAP1 and p21 were quantitated, normalized by the levels of GAPDH, and shown in the curve graphs. C, MB cells were transfected with siRNAs against cIAP1 or cIAP2, and nontargeting (NT) siRNA, and protein levels of cIAP1, cIAP2, and p21 were detected by immunoblotting. D, MB cells were treated with MG‐132, CHX, and MNL4924 to verify p21 protein degradation. The levels of p21 were analyzed by immunoblotting

[9] = tested on: MB cells (DAOY and D283MED); assay: MTT cell viability / proliferation, stated for MB cells together; details: 30 μmol/L, 72 h
Procedure: as §1, §2

p21 = assay: Immunoblotting of p21 protein in MB cells; details: DAOY and D283MED
Excerpt: as §7, §8

neddylation of p21 = assay: Immunoprecipitation of p21, neddylation (NEDD8‐HA); details: MB cells, in the presence of MG‐132 for 6 hours
Procedure: as §5, §6

[10] = tested on: CDK1, CDK2, cyclin A and cyclin B1; assay: Immunoblotting of G2/M transition‐related proteins in MB cells; details: 72 h
Excerpt: as §7, §4

[11] = cisplatin 72 h, with or without siRNA transfection
[12] = cisplatin alone or with IAP inhibitor (10 μmol/L)
[13] = Homo sapiens, vincristine alone or with IAP inhibitor (10 μmol/L)

Question: How did the IC50 (D283MED cells [1]; [11]) turn out when `N.N.[Cl][Pt][Cl]` [Cisplatin, cisplatin] was run?
Answer: The IC50 was greater than 2500 nM.

Question: What about the IC50 (D283MED cells [1]; [12]) of the same compound?
Answer: Its IC50 is 1200 ± 250 nM.

Question: And the “Apoptosis (%)” value (D283MED cells [2])?
Answer: The value was 55.3 ± 3.5%.

Question: And the “G2/M (proportion of cells)” value (D283MED cells [3])?
Answer: Its value is 19.10%.

Question: And the IC50 [4, 12]?
Answer: Its IC50 is greater than 5000 nM.

Question: And the “G2/M (proportion of cells)” value (DAOY cells [5])?
Answer: Its value is 16.70%.

Question: And the IC50 [6, 12]?
Answer: The IC50 was greater than 5000 nM.

Question: And the “Apoptosis (%)” value (DAOY cells [7])?
Answer: Its value is 13.3 ± 2.4%.

Question: And the IC50 (DAOY cells [8]; [11])?
Answer: The IC50 was 740 ± 60 nM.

Question: What about the IC50 (DAOY cells [8]; [12]) of the same compound?
Answer: The IC50 was 1800 ± 100 nM.

Question: Which results are given for `CN[C@@H](C)C(=O)N[C@H](C(=O)N1CC[C@H]2CCN(CCc3ccccc3)C[C@H]21)C1CCCCC1` [LBW242]?
Answer: p21 transcriptional (RNA) levels (p21 RNA): does not affect p21 RNA levels; ubiquitination of p21 (ubiquitination of p21): no effect; Apoptosis (%) (D283MED cells [2]): 20.1 ± 0.3%; effect on HA‐h cell proliferation [4]: only mildly slowed; effect on BJ cell proliferation [6]: only mildly slowed; cIAP1 protein expression (cIAP1): effectively inhibited cIAP1 rather than cIAP2 or XIAP expression; Apoptosis (%) (DAOY cells [7]): 22.6 ± 1.2%; inhibition of proliferation activities [9]: 50%; p21 protein expression (p21): enhances p21 expression; neddylation of p21 (neddylation of p21): reduced neddylation of p21; protein levels of CDK1, CDK2, cyclin A and cyclin B1 [10]: decreased

Question: `CN[C@@H](C)C(=O)N[C@H](C(=O)N1CCC[C@H]1c1nc(C(=O)c2ccc(F)cc2)cs1)C1CCCCC1` [LCL161] was tested. Which “Apoptosis (%)” value (D283MED cells [2]) did it give?
Answer: The value was 14.0 ± 0.4%.

Question: What about the “effect on HA‐h cell proliferation” value [4] of the same compound?
Answer: The value was “only mildly slowed”.

Question: What about the “effect on BJ cell proliferation” value [6] of the same compound?
Answer: Its value is “only mildly slowed”.

Question: What about the “Apoptosis (%)” value (DAOY cells [7]) of the same compound?
Answer: Its value is 17.2 ± 2.5%.

Question: And the inhibition at 30 µM ([9]; read-out: inhibition of proliferation activities)?
Answer: The inhibition at 30 µM was 50%.

Question: And the “protein levels of CDK1, CDK2, cyclin A and cyclin B1” value [10]?
Answer: Its value is “decreased”.

Question: Which p21 protein expression (p21) does the source give for `CC(C)C[C@@H](C=O)NC(=O)[C@H](CC(C)C)NC(=O)[C@H](CC(C)C)NC(=O)OCc1ccccc1` [MG‐132] (Cbz-Leu-Leu-Leu-aldehyde) here?
Answer: The p21 protein expression was “accumulated in a time‐dependent manner”.

Question: `NS(=O)(=O)OC[C@@H]1C[C@@H](n2ccc3c(N[C@H]4CCc5ccccc54)ncnc32)C[C@@H]1O` [MLN4924] was tested. Which p21 protein expression (p21) did it give?
Answer: The p21 protein expression was “accumulated in a time‐dependent manner”.

Question: With `CC[C@]1(O)C[C@H]2CN(CCc3c([nH]c4ccccc34)[C@@](C(=O)OC)(c3cc4c(cc3OC)N(C=O)[C@H]3[C@@](O)(C(=O)OC)[C@H](OC(C)=O)[C@]5(CC)C=CCN6CC[C@]43[C@@H]65)C2)C1` [Vincristine] as the compound, how does the IC50 (D283MED cells [1]; Homo sapiens, D283 Med, vincristine 72 h, with or without siRNA transfection) read?
Answer: Its IC50 is greater than 5 nM.

Question: What about the IC50 (D283MED cells [1]; Homo sapiens, D283 Med, vincristine alone or with IAP inhibitor (10 μmol/L)) of the same compound?
Answer: The IC50 was 5.7 ± 0.47 nM.

Question: And the “Apoptosis (%)” value (D283MED cells [2])?
Answer: Its value is 34.4 ± 2.4%.

Question: What about the “G2/M (proportion of cells)” value (D283MED cells [3]) of the same compound?
Answer: The value was 21.20%.

Question: What about the IC50 [4, 13] of the same compound?
Answer: Its IC50 is greater than 20 nM.

Question: What about the “G2/M (proportion of cells)” value (DAOY cells [5]) of the same compound?
Answer: Its value is 18.28%.

Question: What about the IC50 ([6]; Homo sapiens, chemotherapeutic agent alone or with IAP inhibitor (10 μmol/L)) of the same compound?
Answer: Its IC50 is greater than 5 nM.

Question: What about the “Apoptosis (%)” value (DAOY cells [7]) of the same compound?
Answer: Its value is 6.0 ± 2.1%.

Question: And the IC50 (DAOY cells [8]; Homo sapiens, vincristine 72 h, with or without siRNA transfection)?
Answer: The IC50 was 3.47 ± 0.28 nM.

Question: And the IC50 (DAOY cells [8]; [13])?
Answer: Its IC50 is 5.5 ± 0.61 nM.

Question: How did the p21 protein expression (p21) turn out when `C[C@@H]1C[C@@H]([C@H](O)CC2CC(=O)NC(=O)C2)C(=O)[C@@H](C)C1` [cycloheximide] was run?
Answer: Its p21 protein expression is “decreased p21 protein levels after 30 minutes”.
